Reference: patent publication US20250304582A1, “Bicyclic Ureas As Kinase Inhibitors” (Incyte Corporation, priority 2024, published 2025)

Legend:
[1] = target: T1, catalytic domain (JH1, amino acids 826-1132) of human JAK2 (Homo sapiens, UniProt O60674); assay: JAK2 LanthaScreen JH1 Binding Assay; settings: 50 nM fluorescent JAK2-JH1 tracer, 2 hours at 25° C.; read-out: JH1 BIND (EX. A)
T1 construct: catalytic domain (JH1, amino acids 826-1132) of human JAK2; FLAG (N); purchased Carna Biosciences 08-445-20N; host or cells: baculovirus expression system
T1 sequence (O60674 826-1132): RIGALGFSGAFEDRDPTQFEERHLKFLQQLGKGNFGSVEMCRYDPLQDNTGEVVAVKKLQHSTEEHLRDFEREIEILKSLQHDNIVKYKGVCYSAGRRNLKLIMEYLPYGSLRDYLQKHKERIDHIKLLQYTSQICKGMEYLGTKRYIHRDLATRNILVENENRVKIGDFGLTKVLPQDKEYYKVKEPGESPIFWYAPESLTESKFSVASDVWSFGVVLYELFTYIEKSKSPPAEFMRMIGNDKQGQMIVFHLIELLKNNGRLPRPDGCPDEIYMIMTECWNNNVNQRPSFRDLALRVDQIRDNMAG
Description: Example A. JAK2 LanthaScreen JH1 Binding Assay
JAK2 JH1 binding assay utilizes catalytic domain (JH1, amino acids 826-1132) of human JAK2 expressed as N-terminal FLAG-tagged, biotinylated protein in a baculovirus expression system (Carna Biosciences, Product #08-445-20N). The assay was conducted in black 384-well polystyrene plates in a final reaction volume of 20 μL. JAK2 JH1 (1.5 nM) was incubated with compounds (100 nL serially diluted in DMSO) in the presence of 50 nM fluorescent JAK2-JH1 tracer and 0.5 nM Streptavidin-Tb cryptate (Cisbio Part #610SATLB) in assay buffer (50 mM Tris, pH=7.5, 10 mM MgCl2, 0.01% Brij-35, 0.1% BSA, 1 mM EGTA, 5% Glycerol and 5 mM DTT). Non-specific binding was accessed in the presence of 2 mM ATP. After incubation for 2 hours at 25° C., LanthaScreen signals were read on a PHERAstar FS plate reader (BMG LABTECH). Data was analyzed with IDBS Xlfit and GraphPad Prism 5.0 software using a four parameter dose response curve to determine IC50 for each compound.

[2] = target: T2, pseudo-kinase domain (JH2, amino-acids 536-812) of human Wild Type JAK2 (Homo sapiens, UniProt O60674, F794H/W659A/W777A); assay: JAK2 LanthaScreen JH2-WT Binding Assay; settings: 50 nM Fluorescent JAK2-JH2 Tracer, 1 hour at 25° C.; read-out: JH2 BIND WT (EX. B)
T2 construct: JH2, amino-acids 536-812 with 3 surface mutations W659A, W777A, F794H; His (C); purchased BPS Bioscience 79463; host or cells: baculovirus expression system
T2 sequence (O60674 536-812 W659A/W777A/F794H): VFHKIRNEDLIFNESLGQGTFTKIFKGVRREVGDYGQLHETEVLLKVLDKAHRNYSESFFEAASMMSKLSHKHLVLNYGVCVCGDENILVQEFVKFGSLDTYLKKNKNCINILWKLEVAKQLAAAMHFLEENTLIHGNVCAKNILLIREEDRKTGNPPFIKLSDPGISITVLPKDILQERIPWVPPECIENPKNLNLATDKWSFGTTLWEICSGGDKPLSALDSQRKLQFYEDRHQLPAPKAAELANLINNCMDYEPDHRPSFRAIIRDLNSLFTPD
Description: Example B. JAK2 LanthaScreen JH2-WT Binding Assay
(§1) JAK2 JH2-WT binding assay utilizes pseudo-kinase domain (JH2, amino-acids 536-812 with 3 surface mutations W659A, W777A, F794H) of human Wild Type JAK2 expressed as C-terminal His-Avi-tagged, biotinylated protein in a baculovirus expression system (BPS Bioscience, Catalog #79463). The assay was conducted in black 384-well polystyrene plates in a final reaction volume of 20 μL. JAK2 JH2-WT (0.145 nM) was incubated with compounds (100 nL serially diluted in DMSO) in the presence of 50 nM Fluorescent JAK2-JH2 Tracer (MedChem Express Catalog #HY-102055) and 0.25 nM Streptavidin-Tb cryptate (Cisbio Part #610SATLB) in assay buffer (50 mM Tris, pH=7.5, 10 mM MgCl2, 0.01% Brij-35, 0.1% BSA, 1 mM EGTA, 5% Glycerol and 5 mM DTT). Non-specific binding was accessed in the presence of 2 mM ATP. After incubation for 1 hour at 25° C., LanthaScreen signals were read on a PHERAstar FS plate reader (BMG LABTECH). Data was analyzed with IDBS Xlfit and GraphPad Prism 5.0 software using a four parameter dose response curve to determine IC50 for each compound.

[3] = target: T3, pseudo-kinase domain (JH2, amino-acids 536-812) of human V617F mutant JAK2 (Homo sapiens, UniProt O60674, F794H/V617F/W659A/W777A); assay: JAK2 LanthaScreen JH2-V617F Binding Assay; settings: 50 nM Fluorescent JAK2-JH2 Tracer, 1 hour at 25° C.; read-out: JH2 BIND V617F (Ex. C)
T3 construct: JH2, amino-acids 536-812 with 3 surface mutations W659A, W777A, F794H; His (C); purchased BPS Bioscience 79498; host or cells: baculovirus expression system
T3 sequence (O60674 536-812 V617F/W659A/W777A/F794H): as the sequence (O60674 536-812 W659A/W777A/F794H) above, with V82F counted along it
Description: Example C. JAK2 LanthaScreen JH2-V617F Binding Assay
as §1, with “JH2-V617F” for “JH2-WT”, “V617F mutant” for “Wild Type”, “#79498).” for “#79463).”, “JH2-V617F (0.26” for “JH2-WT (0.145”

[4] = target: T4, catalytic domain (JH1, amino acids 808-1132) of human JAK2 (Homo sapiens, UniProt O60674); assay: JAK2 HTRF Enzyme Activity Assay; assay type: biochemical; settings: ATP (30 μM or 1 mM; not stated which for the table), 60 minutes at 25° C.; read-out: JAK2 HTRF (Ex. D)
T4 construct: catalytic domain (JH1, amino acids 808-1132) of human JAK2; His (N); purchased BPS Bioscience 40450; host or cells: baculovirus expression system
T4 sequence (O60674 808-1132): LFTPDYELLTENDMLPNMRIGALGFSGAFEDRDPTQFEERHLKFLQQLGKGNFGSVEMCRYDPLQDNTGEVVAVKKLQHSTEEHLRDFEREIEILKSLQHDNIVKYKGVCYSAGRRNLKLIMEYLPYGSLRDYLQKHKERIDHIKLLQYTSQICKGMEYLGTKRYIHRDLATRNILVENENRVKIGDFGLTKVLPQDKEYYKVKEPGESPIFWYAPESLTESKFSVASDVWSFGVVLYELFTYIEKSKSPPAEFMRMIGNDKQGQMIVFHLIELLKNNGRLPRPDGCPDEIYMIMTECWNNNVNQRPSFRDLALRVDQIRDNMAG
Description: Example D. JAK2 HTRF Enzyme Activity Assay
JAK2 enzyme activity assays utilize catalytic domain (JH1, amino acids 808-1132) of human JAK2 expressed as N-terminal His-tagged protein in a baculovirus expression system (BPS Bioscience, Catalog #40450). The assays was conducted in black 384-well polystyrene plates in a final reaction volume of 20 μL. JAK2 (0.015 nM) was incubated with compounds (100 nL serially diluted in DMSO) in the presence of ATP (30 μM or 1 mM) and 500 nM Biotin-labeled EQEDEPEGDYFEWLE (SEQ ID NO.: 1) peptide (BioSource International, custom synthesis) in assay buffer (50 mM Tris, pH=7.5, 10 mM MgCl2, 0.01% Brij-35, 0.1% BSA, 1 mM EGTA, 5% Glycerol and 5 mM DTT) for 60 minutes at 25° C. The reactions were stopped by the addition of 10 μL of detection buffer (50 mM Tris, pH 7.8, 0.5 mg/mL BSA, 150 mM NaCl), supplemented with EDTA, LANCE Eu-W1024 anti-phosphotyrosine (PY20), (PerkinElmer, Catalog #AD0067) and Streptavidin SureLight APC (PerkinElmer Catalog #CR130-100), for a final concentration of 15 mM, 1.5 nM and 75 nM, respectively. HTRF signals were read after 30 minutes incubation at room temperature on a PHERAstar FS plate reader (BMG LABTECH). Data was analyzed with TDBS Xlfit and GraphPad Prism 5.0 software using a four parameter dose response curve to determine IC50 for each compound.

SMILES | IC50 [1] | IC50 [2] | IC50 [3] | IC50 [4]
[2H]C([2H])([2H])n1c(=O)n([C@@H]2CC[C@@H](NC(=O)OC)C2)c2cc(Nc3cc(C(C)(C)O)c4cccc(C(F)(F)F)c4n3)ncc21 [Example 9, Methyl ((1R,3R)-3-(6-((4-(2-hydroxypropan-2-yl)-8-(trifluoromethyl)quinolin-2-yl)amino)-3-(methyl-d3)-2-oxo-2,3-dihydro-1H-imidazo[4,5-c]pyridin-1-yl)cyclopentyl)carbamate] | > 1000 nM | ≤ 10 nM | ≤ 10 nM | > 1000 nM
[2H]C([2H])([2H])n1c(=O)n([C@@H]2CC[C@](C)(NC(=O)OC)C2)c2cc(Nc3cc(C(C)(C)O)c4cccc(C(F)(F)F)c4n3)ncc21 [Example 13, Methyl ((1S,3R)-3-(6-((4-(2-hydroxypropan-2-yl)-8-(trifluoromethyl)quinolin-2-yl)amino)-3-(methyl-d3)-2-oxo-2,3-dihydro-1H-imidazo[4,5-c]pyridin-1-yl)-1-methylcyclopentyl)carbamate] | – | – | ≤ 10 nM | > 1000 nM
COC(=O)N[C@@H]1CC[C@@H](n2c(=O)n(C)c3cnc(Nc4ccc5cccc(C(F)F)c5n4)cc32)C1 [Example 38, Methyl ((1R,3R)-3-(6-((8-(difluoromethyl)quinolin-2-yl)amino)-3-methyl-2-oxo-2,3-dihydro-1H-imidazo[4,5-c]pyridin-1-yl)cyclopentyl)carbamate] | > 1000 nM | ≤ 10 nM | ≤ 10 nM | > 1000 nM
[2H]C([2H])([2H])n1c(=O)n([C@@H]2CC[C@](C)(NC(=O)OCCOC)C2)c2cc(Nc3cc(C(C)(C)O)c4cccc(C(F)(F)F)c4n3)ncc21 [Example 14, 2-Methoxyethyl ((1S,3R)-3-(6-((4-(2-hydroxypropan-2-yl)-8-(trifluoromethyl)quinolin-2-yl)amino)-3-(methyl-d3)-2-oxo-2,3-dihydro-1H-imidazo[4,5-c]pyridin-1-yl)-1-methylcyclopentyl)carbamate] | – | – | ≤ 10 nM | > 1000 nM
[2H]C([2H])([2H])n1c(=O)n([C@@H]2CC[C@]([2H])(NC(=O)OC)C2)c2cc(Nc3cc(C(C)(C)O)c4cccc(C(F)(F)F)c4n3)ncc21 [Example 11, Methyl ((1S,3R)-3-(6-((4-(2-hydroxypropan-2-yl)-8-(trifluoromethyl)quinolin-2-yl)amino)-3-(methyl-d3)-2-oxo-2,3-dihydro-1H-imidazo[4,5-c]pyridin-1-yl)cyclopentyl-1-d)carbamate] | – | – | ≤ 10 nM | > 1000 nM
[2H]C([2H])([2H])n1c(=O)n(C23CC(NC(=O)OC)(C2)C3)c2cc(Nc3ccc4cccc(C(F)(F)F)c4n3)ncc21 [Example 33, Methyl (3-(3-(methyl-d3)-2-oxo-6-((8-(trifluoromethyl)quinolin-2-yl)amino)-2,3-dihydro-1H-imidazo[4,5-c]pyridin-1-yl)bicyclo[1.1.1]pentan-1-yl)carbamate] | – | – | 10 to 100 nM | > 1000 nM
[2H]C([2H])([2H])n1c(=O)n(C23CCC(NC(=O)OC)(C2)C3)c2cc(Nc3cc(C(C)(C)O)c4cccc(C(F)(F)F)c4n3)ncc21 [Example 32, Methyl (4-(6-((4-(2-hydroxypropan-2-yl)-8-(trifluoromethyl)quinolin-2-yl)amino)-3-(methyl-d3)-2-oxo-2,3-dihydro-1H-imidazo[4,5-c]pyridin-1-yl)bicyclo[2.1.1]hexan-1-yl)carbamate] | – | – | ≤ 10 nM | > 1000 nM
[2H]C([2H])([2H])n1c(=O)n([C@@H]2CC[C@@]([2H])(NC(=O)OC)C2)c2cc(Nc3cc(C(C)(C)O)c4cccc(C(F)(F)F)c4n3)ncc21 [Example 12, Methyl ((1R,3R)-3-(6-((4-(2-hydroxypropan-2-yl)-8-(trifluoromethyl)quinolin-2-yl)amino)-3-(methyl-d3)-2-oxo-2,3-dihydro-1H-imidazo[4,5-c]pyridin-1-yl)cyclopentyl-1-d)carbamate] | – | – | ≤ 10 nM | > 1000 nM
[2H]C([2H])([2H])n1c(=O)n([C@@H]2CC[C@@]([2H])(NC(=O)OC)C2)c2cc(Nc3cc(C)c4nc(C)c(I)n4n3)ncc21 [Example 46, Methyl ((1R,3R)-3-(6-((3-iodo-2,8-dimethylimidazo[1,2-b]pyridazin-6-yl)amino)-3-(methyl-d3)-2-oxo-2,3-dihydro-1H-imidazo[4,5-c]pyridin-1-yl)cyclopentyl-1-d)carbamate] | – | – | ≤ 10 nM | > 1000 nM
[2H]C([2H])([2H])n1c(=O)n([C@@H]2CC[C@@H](NC(=O)OC)C2)c2cc(Nc3cc(C(C)(C)O)c4cccc(C(C)(C)C#N)c4n3)ncc21 [Example 34, Methyl ((1R,3R)-3-(6-((8-(2-cyanopropan-2-yl)-4-(2-hydroxypropan-2-yl)quinolin-2-yl)amino)-3-(methyl-d3)-2-oxo-2,3-dihydro-1H-imidazo[4,5-c]pyridin-1-yl)cyclopentyl)carbamate] | – | – | 10 to 100 nM | > 1000 nM
